From the supplement of paper PMC11451515

Test system: P12-Ichikawa
Experiment: cell viability relative to DMSO control; higher = less cytotoxic
Conditions: 48 h
Outline: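 Three leukemia lines were tested: NOMO1 and SEM at 500 cells/well and P12-Ichikawa at 1000 cells/well. Each was adapted for at least four passages in each medium and seeded in 5 μl in 1536-well plates, and library compounds in DMSO were pin-dosed from 47 μM to 0.79 nM in 11 threefold steps. After 48 h at 37°C, CellTiter-Glo One luminescence was read. Viability is a percentage relative to DMSO wells on each plate, with cell-free wells as background.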

[1] = HPLM + 10% dialyzed FBS, 0.000781 µM
[2] = HPLM + 10% dialyzed FBS, 0.00234 µM
[3] = HPLM + 10% dialyzed FBS, 0.00702 µM
[4] = HPLM + 10% dialyzed FBS, 0.0211 µM
[5] = HPLM + 10% dialyzed FBS, 0.0632 µM
[6] = HPLM + 10% dialyzed FBS, 0.19 µM
[7] = HPLM + 10% dialyzed FBS, 0.569 µM
[8] = HPLM + 10% dialyzed FBS, 1.71 µM
[9] = HPLM + 10% dialyzed FBS, 5.12 µM
[10] = HPLM + 10% dialyzed FBS, 15.4 µM
[11] = HPLM + 10% dialyzed FBS, 46.1 µM
[12] = RPMI 5 mM glucose + 10% FBS, 0.000781 µM
[13] = RPMI 5 mM glucose + 10% FBS, 0.00234 µM
[14] = RPMI 5 mM glucose + 10% FBS, 0.00702 µM
[15] = RPMI 5 mM glucose + 10% FBS, 0.0211 µM
[16] = RPMI 5 mM glucose + 10% FBS, 0.0632 µM
[17] = RPMI 5 mM glucose + 10% FBS, 0.19 µM
[18] = RPMI 5 mM glucose + 10% FBS, 0.569 µM
[19] = RPMI 5 mM glucose + 10% FBS, 1.71 µM
[20] = RPMI 5 mM glucose + 10% FBS, 5.12 µM
[21] = RPMI 5 mM glucose + 10% FBS, 15.4 µM
[22] = RPMI 5 mM glucose + 10% FBS, 46.1 µM
[23] = RPMI 5 mM glucose + 10% dialyzed FBS, 0.000781 µM
[24] = RPMI 5 mM glucose + 10% dialyzed FBS, 0.00234 µM
[25] = RPMI 5 mM glucose + 10% dialyzed FBS, 0.00702 µM
[26] = RPMI 5 mM glucose + 10% dialyzed FBS, 0.0211 µM
[27] = RPMI 5 mM glucose + 10% dialyzed FBS, 0.0632 µM
[28] = RPMI 5 mM glucose + 10% dialyzed FBS, 0.19 µM
[29] = RPMI 5 mM glucose + 10% dialyzed FBS, 0.569 µM
[30] = RPMI 5 mM glucose + 10% dialyzed FBS, 1.71 µM
[31] = RPMI 5 mM glucose + 10% dialyzed FBS, 5.12 µM
[32] = RPMI 5 mM glucose + 10% dialyzed FBS, 15.4 µM
[33] = RPMI 5 mM glucose + 10% dialyzed FBS, 46.1 µM

| Structure (SMILES) | cell viability [1] [%] | cell viability [2] [%] | cell viability [3] [%] | cell viability [4] [%] | cell viability [5] [%] | cell viability [6] [%] | cell viability [7] [%] | cell viability [8] [%] | cell viability [9] [%] | cell viability [10] [%] | cell viability [11] [%] | cell viability [12] [%] | cell viability [13] [%] | cell viability [14] [%] | cell viability [15] [%] | cell viability [16] [%] | cell viability [17] [%] | cell viability [18] [%] | cell viability [19] [%] | cell viability [20] [%] | cell viability [21] [%] | cell viability [22] [%] | cell viability [23] [%] | cell viability [24] [%] | cell viability [25] [%] | cell viability [26] [%] | cell viability [27] [%] | cell viability [28] [%] | cell viability [29] [%] | cell viability [30] [%] | cell viability [31] [%] | cell viability [32] [%] | cell viability [33] [%] |
| --- | --- | --- | --- | --- | --- | --- | --- | --- | --- | --- | --- | --- | --- | --- | --- | --- | --- | --- | --- | --- | --- | --- | --- | --- | --- | --- | --- | --- | --- | --- | --- | --- | --- |
| OC[C@H](Cc1ccccc1)Nc1nc(Oc2ccc3c(c2)CCC3)nc2c1ncn2Cc1ccc(-c2ccccc2)cc1 | 93 | 94.1 | 98.7 | 102 | 96.4 | 99.1 | 105 | 94.3 | 95.4 | 82.7 | 79.2 | 90.8 | 93.3 | 89 | 90.5 | 94.7 | 89.5 | 91 | 97.3 | 90.1 | 86 | 75.1 | 79.6 | 88.4 | 90.9 | 99 | 99.8 | 89.3 | 90.8 | 87.7 | 88.9 | 72.4 | 68.4 |
| CN(C)CCc1c[nH]c2ccc(C[C@H]3COC(=O)N3)cc12 | 98.4 | 109 | 109 | 115 | 105 | 105 | 116 | 112 | 88.7 | 13.7 | 9.01 | 105 | 101 | 112 | 104 | 111 | 117 | 116 | 102 | 84.1 | 36.2 | 6.37 | 108 | 100 | 105 | 111 | 106 | 111 | 104 | 112 | 80.2 | 38.2 | 7.95 |
| CNC1[C@@H](O)C(O[C@@H]2C(O)C(O[C@H]3O[C@H]([C@@H](C)NC)CC[C@H]3N)[C@@H](N)C[C@H]2N)OC[C@]1(C)O (some centres not stated) | 104 | 98.3 | 102 | 99.6 | 96.5 | 102 | 102 | 98.6 | 89.6 | 90.8 | 85.4 | 92.8 | 88.9 | 97.7 | 91.8 | 93 | 102 | 95.2 | 97.1 | 87.9 | 82.4 | 92.2 | 92.7 | 89.9 | 90 | 93 | 97.8 | 92.2 | 94.1 | 92.3 | 89.4 | 82.7 | 88.4 |
| C[C@@]12O[C@@H](C[C@]1(O)CO)n1c3ccccc3c3c4c(c5c6ccccc6n2c5c31)CNC4=O | 115 | 112 | 109 | 112 | 110 | 101 | 81.3 | 29.9 | 23.2 | 15.2 | 12.9 | 116 | 117 | 121 | 110 | 111 | 98.2 | 70.5 | 26.1 | 26.6 | 15.6 | 8.24 | 115 | 109 | 115 | 103 | 97.6 | 104 | 62.3 | 33.8 | 24.3 | 9.03 | 8.99 |
| Oc1ccc(C2CCN(c3ccnc4ccccc34)CC2)cc1O | 102 | 118 | 111 | 113 | 112 | 117 | 110 | 106 | 70.8 | 67.4 | 63.4 | 112 | 110 | 109 | 125 | 122 | 107 | 113 | 110 | 71.5 | 55.1 | 48.5 | 96.5 | 113 | 106 | 110 | 107 | 112 | 111 | 97.5 | 59.2 | 45.8 | 40.8 |
| CC(C)C[C@H](NC(=O)[C@@H](NC(=O)c1cccc(-c2ccccc2)n1)[C@@H](C)O)B(O)O | 101 | 114 | 112 | 112 | 45.1 | 7.04 | 6.52 | 6.5 | 3.21 | 1.52 | 1.32 | 103 | 118 | 123 | 110 | 17.8 | 7.41 | 6.75 | 6.12 | 4.81 | 2.62 | 1.65 | 99.4 | 109 | 122 | 124 | 53.2 | 7.76 | 6.76 | 6.66 | 5.34 | 2.52 | 1.55 |
| C\C1=C\C(=O)C2=C(C=CC=C2)C1=O | 108 | 104 | 118 | 125 | 128 | 120 | 127 | 125 | 122 | 116 | 123 | 107 | 119 | 109 | 130 | 125 | 118 | 125 | 135 | 134 | 139 | 131 | 119 | 122 | 121 | 130 | 127 | 137 | 128 | 118 | 120 | 131 | 128 |
| NC1=NC=C(C=C1)C2=CC=C3N=CC\4=C(N(C(=O)\C=C4)C5=CC(=CC=C5)C(F)(F)F)C3=C2 | 81.4 | 82.7 | 76.7 | 66.7 | 58.6 | 41.1 | 42.6 | 34.5 | 11.6 | 14 | 15.7 | 67.1 | 64.9 | 56.3 | 51.8 | 50.4 | 34 | 33.4 | 27.2 | 7.23 | 7.38 | 11.5 | 64.4 | 74.4 | 59.6 | 52.7 | 50.3 | 32.9 | 30.4 | 23.7 | 7.6 | 7.89 | 12.4 |
| C[C@@H]1CN[C@H]2[C@@H](C)[C@@]\3(CC[C@H]\4[C@@H]5C/C=C6/C[C@@H](O)CC[C@]6(C)[C@H]5CC4=C3C)O[C@@H]2C1 | – | – | – | – | – | – | – | – | – | – | – | – | – | – | – | – | – | – | – | – | – | – | 119 | 125 | 123 | 121 | 124 | 115 | 114 | 114 | 109 | 101 | 93.1 |
| Cc1c(Cn2c(C)nc3c(C(=O)O)cc(N4CCOCC4)cc32)cccc1C(F)(F)F | 102 | 109 | 107 | 116 | 115 | 108 | 120 | 106 | 104 | 110 | 87.8 | 98.6 | 100 | 108 | 115 | 111 | 102 | 113 | 109 | 99.5 | 89.2 | 94.2 | 92.9 | 112 | 109 | 122 | 115 | 106 | 119 | 111 | 96.9 | 107 | 100 |
| CC(C)Nc1cc(C(F)(F)F)cc2nc(NC(=O)c3cccnc3)nn12 | 113 | 115 | 117 | 116 | 108 | 107 | 108 | 10.1 | 12.6 | 14.6 | 33.5 | – | – | – | – | – | – | – | – | – | – | – | 121 | 115 | 113 | 113 | 116 | 114 | 111 | 28.2 | 24.1 | 24.9 | 37 |
| CC[C@H]1/C=C\C=C/C[C@@H](C)[C@H](O)[C@@](C)(O)C(=O)[C@@H](C)[C@H](O)[C@@H](C)C(=O)[C@@H](C)[C@H](O)[C@@H](C)/C=C/C(=O)O[C@@H]2[C@H](C)[C@H](CC1)O[C@]1(CC[C@H](C)[C@H](C[C@@H](C)O)O1)[C@H]2C | 91.4 | 102 | 98.8 | 102 | 89.5 | 107 | 109 | 67.4 | 57.1 | 41.4 | 4.23 | 90.5 | 96.7 | 75 | 110 | 94.1 | 109 | 108 | 64.4 | 58.9 | 53.7 | 5.47 | 84.9 | 102 | 92.7 | 89.9 | 101 | 99.8 | 92.2 | 59.1 | 45.9 | 41.8 | 5.21 |
| COc1cc2c(Oc3ccc(NC(=O)C4(C(=O)Nc5ccc(F)cc5)CC4)cc3F)ccnc2cc1OCCCN1CCOCC1 | 86.3 | 90.5 | 87 | 88.8 | 81.2 | 81.8 | 78.5 | 38.7 | 8.94 | 8.26 | 5.1 | 83.8 | 90.3 | 84.8 | 83.5 | 85.7 | 74.3 | 77.1 | 59.5 | 10 | 11 | 4.54 | 86.2 | 82.9 | 86.6 | 89.3 | 85.4 | 80 | 88.2 | 44.6 | 14.7 | 12.4 | 4.34 |
| CO[C@H]1C[C@@H]2CC[C@@H](C)[C@@](O)(O2)C(=O)C(=O)N2CCCC[C@H]2C(=O)O[C@H]([C@H](C)C[C@@H]2CC[C@@H](OC(=O)C(C)(CO)CO)[C@H](OC)C2)CC(=O)[C@H](C)/C=C(\C)[C@@H](O)[C@@H](OC)C(=O)[C@H](C)C[C@H](C)/C=C/C=C/C=C/1C | 110 | 117 | 113 | 106 | 104 | 107 | 100 | 96 | 87.2 | 83.4 | 77.9 | 92.8 | 111 | 97.6 | 97.8 | 94.1 | 90 | 87.6 | 84.4 | 65.8 | 63.3 | 50.1 | 94.3 | 110 | 110 | 92 | 92.8 | 96.7 | 85 | 89.8 | 78.2 | 66.5 | 52.5 |
| CCc1c(C(=O)C(N)=O)c2c(OCC(=O)O)cccc2n1Cc1ccccc1 | 105 | 112 | 112 | 105 | 107 | 111 | 106 | 111 | 103 | 107 | 99.5 | 102 | 101 | 102 | 104 | 105 | 98.1 | 96.5 | 99.4 | 94.8 | 93.6 | 95.3 | 99.4 | 107 | 102 | 98.4 | 99.9 | 94.4 | 91.8 | 97.3 | 92.3 | 95.8 | 91.3 |
